# Experimental data from the supplement of paper PMC10307832.
# Experiments:
# Experiment in all cases: relative viability (nuclei count vs DMSO), 5 days (fraction); higher = more cells survive
# [1] = compound: C=CCn1c(=O)c2cnc(Nc3ccc(N4CCN(C)CC4)cc3)nc2n1-c1cccc(C(C)(C)O)n1 [Adavosertib] + Cc1cc(Nc2cc(N3CCN(C)CC3)nc(Sc3ccc(NC(=O)C4CC4)cc3)n2)n[nH]1 [Tozasertib] (partner 0.1 µM)
# Summary of the method: (§1)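 Medians of duplicate plates are given as relative viability. That measure is the nuclei count in treated wells divided by the count in vehicle wells. Counts were taken on 4× images of lung cancer cell lines in 1536-well plates, 5 days after pin-tool dosing the day after seeding with one drug alone or a fixed anchor-drug dose plus five library-drug doses (not always all listed) in √10 steps.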
# [2] = compound: C=CCn1c(=O)c2cnc(Nc3ccc(N4CCN(C)CC4)cc3)nc2n1-c1cccc(C(C)(C)O)n1 [Adavosertib] + CS(=O)(=O)CCNCc1ccc(-c2ccc3ncnc(Nc4ccc(OCc5cccc(F)c5)c(Cl)c4)c3c2)o1 [Lapatinib] (partner 2 µM)
# Summary of the method: as §1
# [3] = compound: C=CCn1c(=O)c2cnc(Nc3ccc(N4CCN(C)CC4)cc3)nc2n1-c1cccc(C(C)(C)O)n1 [Adavosertib] + O=C(c1cc(Cc2n[nH]c(=O)c3ccccc23)ccc1F)N1CCN(C(=O)C2CC2)CC1 [Olaparib] (partner 8 µM)
# Summary of the method: as §1
# [4] = compound: C=CCn1c(=O)c2cnc(Nc3ccc(N4CCN(C)CC4)cc3)nc2n1-c1cccc(C(C)(C)O)n1 [Adavosertib] + CC(C)C[C@H](NC(=O)[C@H](Cc1ccccc1)NC(=O)c1cnccn1)B(O)O [Bortezomib] (partner 0.002 µM)
# Summary of the method: as §1
# [5] = compound: C=CCn1c(=O)c2cnc(Nc3ccc(N4CCN(C)CC4)cc3)nc2n1-c1cccc(C(C)(C)O)n1 [Adavosertib] + C[C@]1(O)C[C@@H](c2nc(-c3ccc4ccc(-c5ccccc5)nc4c3)c3c(N)nccn32)C1 [Linsitinib] (partner 1 µM)
# Summary of the method: as §1
Cell Line,relative viability ([1]; first compound 0.01 µM),relative viability ([1]; first compound 0.03162 µM),relative viability ([1]; first compound 0.1 µM),relative viability ([1]; first compound 0.3162 µM),relative viability ([2]; first compound 0.01 µM),relative viability ([2]; first compound 0.03162 µM),relative viability ([2]; first compound 0.1 µM),relative viability ([2]; first compound 0.3162 µM),relative viability ([3]; first compound 0.01 µM),relative viability ([3]; first compound 0.03162 µM),relative viability ([3]; first compound 0.1 µM),relative viability ([3]; first compound 0.3162 µM),relative viability ([4]; first compound 0.01 µM),relative viability ([4]; first compound 0.03162 µM),relative viability ([4]; first compound 0.1 µM),relative viability ([4]; first compound 0.3162 µM),relative viability ([5]; first compound 0.01 µM),relative viability ([5]; first compound 0.03162 µM),relative viability ([5]; first compound 0.1 µM),relative viability ([5]; first compound 0.3162 µM)
NCI-H1623,0.4,0.447,0.351,0.447,–,–,–,–,–,–,–,–,–,–,–,–,–,–,–,–
HARA,0.125,0.128,0.111,0.0667,0.648,0.858,0.648,0.729,0.464,0.535,0.766,0.187,0.981,1.17,1.13,0.938,0.907,1.06,0.98,0.97
NCI-H2126,0.808,0.834,0.863,0.924,0.736,0.781,0.764,0.829,0.909,0.939,0.915,0.919,1.12,1.17,1.11,1.15,0.695,0.712,0.703,0.722
NCI-H1703,–,–,–,–,1.19,1.1,0.93,0.257,0.507,0.545,0.387,0.141,0.461,0.366,0.464,0.18,1.05,0.822,1.01,0.414
UMC-11,0.19,0.201,0.196,0.181,0.939,0.999,0.851,1.28,0.411,0.429,0.452,1.03,0.737,0.481,0.927,0.708,0.959,0.99,1.19,1.02
PC-14,0.6,0.566,0.843,0.69,0.344,0.319,0.297,0.407,0.44,0.211,0.176,0.0727,1.05,0.873,0.926,0.334,0.915,0.957,0.942,0.575
NCI-H1792,–,–,–,–,0.824,0.931,0.919,0.937,0.464,0.461,0.378,0.459,0.974,0.918,0.972,0.968,0.601,0.519,0.493,0.559
NCI-H1651,0.7,0.702,0.832,0.668,0.956,0.715,0.752,0.682,0.17,0.218,0.139,0.16,0.902,0.963,1,0.935,1.03,1.02,0.98,0.783
HCC-15,0.385,0.409,0.481,0.444,0.902,0.87,0.934,0.955,0.73,0.727,0.958,0.876,1.01,0.953,1.07,1.26,0.878,0.876,1.05,0.989
NCI-H2170,0.675,0.683,0.688,0.735,0.273,0.27,0.277,0.287,0.643,0.586,0.588,0.448,–,–,–,–,–,–,–,–
SW 1573,0.221,0.234,0.192,0.17,1.22,1.36,1.14,1.08,0.507,0.564,0.663,0.372,1.21,1.07,1.16,1.16,0.919,0.864,0.911,0.886
NCI-H661,0.353,0.36,0.339,0.349,0.542,0.601,0.514,0.363,0.779,0.828,0.721,0.449,0.941,0.695,0.889,0.738,0.609,0.648,0.463,0.417
PC-3 [JPC-3],0.891,0.874,0.925,0.897,0.445,0.418,0.47,0.429,–,1.09,1.2,1.14,0.808,0.812,0.853,0.793,0.903,0.935,0.929,0.985
NCI-H358,0.104,0.0953,0.102,0.0852,0.355,0.429,0.46,0.431,0.563,0.517,0.416,0.329,–,–,–,–,0.747,0.675,0.547,0.374
COR-L23,0.24,0.236,0.23,0.162,1.06,1.09,0.769,0.415,0.339,0.34,0.227,0.163,0.976,1.03,0.95,0.546,0.965,0.904,0.745,0.209
IA-LM,–,–,–,–,0.996,–,1.03,0.901,0.809,0.82,0.872,0.775,0.899,0.989,0.893,0.774,0.687,0.749,0.692,0.807
ABC-1,0.208,0.161,0.166,0.145,1.12,1.09,1.24,1.26,0.942,0.779,1.02,0.664,0.247,0.329,0.255,0.332,1.03,0.849,0.647,0.682
RERF-LC-KJ,0.555,0.627,0.577,0.668,0.915,0.826,0.89,0.825,0.952,0.986,1.05,0.955,1.14,1.02,1.19,1.28,0.925,0.921,0.848,0.796
NCI-H1563,–,–,–,–,1.02,1.02,0.969,0.932,–,–,–,–,0.9,0.901,0.86,0.869,1.17,1.24,1.18,1.2
A-427,0.175,0.186,0.219,0.164,1.01,1.02,1.07,0.999,0.76,0.716,0.815,0.701,0.906,1.04,0.964,0.861,1.09,1.05,1.05,1.03

Cell Line,relative viability ([1]; first compound 0.01 µM),relative viability ([1]; first compound 0.03162 µM),relative viability ([1]; first compound 0.1 µM),relative viability ([1]; first compound 0.3162 µM),relative viability ([2]; first compound 0.01 µM),relative viability ([2]; first compound 0.03162 µM),relative viability ([2]; first compound 0.1 µM),relative viability ([2]; first compound 0.3162 µM),relative viability ([3]; first compound 0.01 µM),relative viability ([3]; first compound 0.03162 µM),relative viability ([3]; first compound 0.1 µM),relative viability ([3]; first compound 0.3162 µM),relative viability ([4]; first compound 0.01 µM),relative viability ([4]; first compound 0.03162 µM),relative viability ([4]; first compound 0.1 µM),relative viability ([4]; first compound 0.3162 µM),relative viability ([5]; first compound 0.01 µM),relative viability ([5]; first compound 0.03162 µM),relative viability ([5]; first compound 0.1 µM),relative viability ([5]; first compound 0.3162 µM)
EKVX,0.424,0.451,0.436,0.469,0.216,0.233,0.201,0.225,0.756,0.841,0.783,0.833,0.992,1.14,0.996,1.27,0.941,0.966,0.989,1.07
LOU-NH91,0.694,0.69,0.735,0.62,0.74,0.804,0.734,0.674,0.857,0.917,0.946,0.928,0.484,0.502,0.502,0.489,1,0.938,0.964,0.871
SW 900,–,0.533,0.62,0.538,–,–,–,–,0.722,0.851,0.779,0.399,–,–,–,–,–,–,–,–
NCI-H1793,0.352,0.386,0.4,0.253,0.61,0.714,0.721,0.647,0.739,0.794,0.746,0.529,–,–,–,–,0.822,0.765,0.915,0.869
ChaGo-K-1,0.228,0.243,0.229,0.228,–,–,–,–,0.434,0.39,0.405,0.32,0.872,0.838,0.897,0.699,–,–,–,–
SK-MES-1,0.898,0.929,0.92,0.285,0.45,0.43,0.476,0.389,0.748,0.805,0.379,0.233,–,–,–,–,1.03,1.02,1.1,0.835
Calu-6,–,–,–,–,1.07,1,1.04,0.356,0.629,0.552,0.523,0.216,0.93,1.01,1.05,0.386,0.906,0.917,1.02,0.866
NCI-H1648,0.545,0.613,0.386,0.545,–,–,–,–,0.953,0.966,1.39,0.769,–,–,–,–,–,–,–,–
NCI-H1395,0.757,0.822,0.853,0.733,0.824,1.31,1.03,0.78,0.561,0.547,0.409,0.438,–,–,–,–,1.17,1.18,1.2,0.955
LK-2,0.172,0.2,0.171,0.19,0.866,1.05,1.01,0.97,0.742,0.891,0.763,0.767,–,–,–,–,0.761,0.742,0.522,0.424
EBC-1,–,–,–,–,0.198,0.206,0.25,0.21,0.624,0.765,0.83,0.647,0.719,0.653,0.562,0.493,0.91,0.962,0.994,1.18
NCI-H1944,0.227,0.241,0.23,0.269,0.765,0.709,0.908,0.783,0.41,0.384,0.393,0.403,–,–,–,–,1.17,1.13,1.23,1
A549,–,–,–,–,0.908,1.01,1.06,0.743,0.356,0.336,0.446,0.438,–,–,–,–,0.654,0.553,0.634,0.52
NCI-H2342,0.548,0.507,0.55,0.525,–,–,–,–,0.497,0.561,0.492,0.524,–,–,–,–,–,–,–,–
NCI-H1650,0.415,0.464,0.563,0.299,0.75,0.884,0.747,0.379,0.714,0.708,0.76,0.622,0.223,0.211,0.207,0.194,–,–,–,–
NCI-H441,0.688,0.685,0.801,0.636,–,–,–,–,0.533,0.477,0.577,0.462,0.38,0.761,0.414,0.354,0.552,0.5,0.496,0.329
LCLC-103H,0.5,0.501,0.572,0.451,–,–,–,–,0.797,0.769,0.761,0.742,1.03,1.1,1.05,1.08,1.07,1.02,1.14,1.07
NCI-H1299,–,–,–,–,0.954,0.968,0.977,0.431,0.953,0.959,1.04,0.357,1.02,1.03,1.09,1.02,0.963,0.985,0.996,0.95
NCI-H522,0.522,0.58,0.508,0.581,–,–,–,–,0.724,0.644,0.647,0.734,–,–,–,–,–,–,–,–
